Measurements reported in patent US20230339952A1, “MACROCYCLIC HETEROCYCLES AND USES THEREOF” (Kumquat Biosciences Inc., priority 2022, published 2023).
Where two headings read alike, the source gives them in different places.

What was measured:
[1] = rcm bond, DCM
[2] = system: NCI-H1975 (ATCC CRL-5908) cell line comprising an EGFR T790M L858R double mutation; assay: EGFR-SOS cellular inhibition assay (CellTiter-Glo cell proliferation); format: cell-based; settings: Homo sapiens
Protocol: A CellTiter-Glo (CTG) luminescent based assay (Promega) is used to assess growth of the cells, as a measurement of the ability of the compounds herein to inhibit EGFR signaling in the cells. […] The day after plating, cells are treated with a dilution series (e.g., a 9 point 3-fold dilution series) of the compounds herein (e.g., approximately 125 μL final volume per well).

[3] = system: MIA PaCa-2 cells (K-Ras G12C); assay: Ras-SOS cellular growth inhibition assay (CellTiter-Glo); settings: Homo sapiens, MIA PaCa-2, 120 h, read-out: IC50 in inhibiting MIA PaCa-2 cell growth
Protocol: A CellTiter-Glo (CTG) luminescent based assay (Promega) is used to assess growth of the cells, as a measurement of the ability of the compounds herein to inhibit Ras signaling in the cells. […] The day after plating, cells are treated with a dilution series (e.g., a 9 point 3-fold dilution series) of the compounds herein (e.g., approximately 125 μL final volume per well). Cell viability can be monitored (e.g., approximately 5 days later) according to the manufacturer's recommended instructions, where the CellTiter-Glo reagent is added (e.g., approximately 65 μL), vigorously mixed, covered, and placed on a plate shaker (e.g., approximately for 20 min) to ensure sufficient cell lysis prior to assessment of luminescent signal. The IC50 values are determined using the four-parameter fit. The resulting IC50 value is a measurement of the ability of the compounds herein to reduce cell growth of Ras-driven cells as representative tumor cells.

SOS1 = SOS1 (Homo sapiens (Human), UniProt Q07889); assay: Ras-SOS interaction assay (HTRF), K-Ras G13D utilized; format: binding; settings: K-Ras G13D
[4] = 120 h, NCI-H1975 cell proliferation, approximately 5 days, read-out: H1975 IC50
[5] = NCI-H1975, EGFR T790M L858R double mutation, read-out: IC50 in inhibiting growth of NCI-H1975 cell line
[6] = read-out: IC50 value against SOS1

Sequence of SOS1 (Q07889 564-1049): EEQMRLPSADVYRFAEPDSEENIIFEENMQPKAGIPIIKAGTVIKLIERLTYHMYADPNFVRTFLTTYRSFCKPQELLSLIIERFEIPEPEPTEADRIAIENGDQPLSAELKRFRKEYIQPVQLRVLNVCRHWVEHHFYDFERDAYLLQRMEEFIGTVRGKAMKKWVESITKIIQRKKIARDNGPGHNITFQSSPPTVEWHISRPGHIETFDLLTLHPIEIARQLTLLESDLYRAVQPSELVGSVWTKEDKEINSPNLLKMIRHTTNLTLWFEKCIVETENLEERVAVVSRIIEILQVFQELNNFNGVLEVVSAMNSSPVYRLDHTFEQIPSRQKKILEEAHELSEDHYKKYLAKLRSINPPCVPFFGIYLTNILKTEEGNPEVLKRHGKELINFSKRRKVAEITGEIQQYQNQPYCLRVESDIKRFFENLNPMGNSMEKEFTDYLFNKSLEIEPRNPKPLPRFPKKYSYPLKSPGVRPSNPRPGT

| SMILES | ring closure, yield of all isomers ([1]; from C=CCCCCCn1c(=O)c(C2(C#N)CC2)cc2c(N[C@H](C)c3cccc(C(F)(F)C4CCN(CC=C)CC4)c3)ncnc21, Grubbs II catalyst, 1.41 mM, 40.0 °C) | ring closure, yield of all isomers ([1]; from C=CCCCCn1c(=O)c(C2CCS(=O)(=O)CC2)cc2c(N[C@H](C)c3cccc(C(F)(F)C4CCN(CC=C)CC4)c3)nc(C)nc21, Grubbs II, 4.48 mM, 25.0 °C, 16.0 h) | IC50 [2, 4] | IC50 [2, 5] | IC50 [3] | IC50 (SOS1; read-out: SOS1 IC50) | IC50 (SOS1; [6]) |
| --- | --- | --- | --- | --- | --- | --- | --- |
| C[C@H]1Nc2ncnc3c2cc(C2(C#N)CC2)c(=O)n3CCCCCC=CCN2CCC(CC2)C(F)(F)c2cccc1c2 | 18.5% | – | – | – | – | – | – |
| Cc1nc2c3cc(C4CCS(=O)(=O)CC4)c(=O)n(c3n1)CCCCC=CCN1CCC(CC1)C(F)(F)c1cccc(c1)[C@@H](C)N2 | – | 64.2% | – | – | – | – | – |
| C[C@H]1Nc2nc(=O)n(c3c2cc(C2(C#N)CC2)c(=O)n3C)CC/C=C\CN2CCC(CC2)C(F)(F)c2cccc1c2 [Compound 6, 1-((6^3E,4R,9Z)-2,2-difluoro-6^8,4-dimethyl-6^2,6^7-dioxo-6^1,6^2,6^7,6^8-tetrahydro-5-aza-6(4,1)-pyrido[2,3-d]pyrimidina-1(4,1)-piperidina-3(1,3)-benzenacycloundecaphan-9-en-6^6-yl)cyclopropane-1-carbonitrile] | – | – | < 1000 nM | < 500 nM | < 1000 nM | < 100 nM | – |
| Cc1nc2c3cc(C4(C#N)CC4)c(=O)n(c3n1)CCCCCCCCC(C)(O)C(F)(F)c1cccc(c1)[C@@H](C)N2 (stereo partly drawn) [Compound 9, 1-((3R)-5,5-difluoro-6-hydroxy-1^2,3,6-trimethyl-1^7-oxo-1^7,1^8-dihydro-2-aza-1(4,8)-pyrido[2,3-d]pyrimidina-4(1,3)-benzenacyclotetradecaphane-1^6-yl)cyclopropane-1-carbonitrile] | – | – | < 1000 nM | – | < 1000 nM | 100 to 5000 nM | – |
| C[C@H]1Nc2ncnc3c2cc(C2(C#N)CC2)c(=O)n3CCCCCCCCN2CCC(CC2)C(F)(F)c2cccc1c2 [Compound 54, 1-((4R)-2,2-difluoro-4-methyl-6^7-oxo-6^7,6^8-dihydro-5-aza-6(4,8)-pyrido[2,3-d]pyrimidina-1(4,1)-piperidina-3(1,3)-benzenacyclotetradecaphane-6^6-yl)cyclopropane-1-carbonitrile] | – | – | < 1000 nM | < 500 nM | < 1000 nM | – | – |
| C[C@H]1Nc2ncnc3c2cc(C2(C#N)CC2)c(=O)n3CCCCCCCN2CCC(CC2)C(F)(F)c2cccc1c2 [Compound 61, 1-((4R)-2,2-difluoro-4-methyl-6^7-oxo-6^7,6^8-dihydro-5-aza-6(4,8)-pyrido[2,3-d]pyrimidina-1(4,1)-piperidina-3(1,3)-benzenacyclotridecaphane-6^6-yl)cyclopropane-1-carbonitrile] | – | – | < 1000 nM | < 500 nM | < 1000 nM | < 100 nM | < 50 nM |
| Cc1nc2c3cc(C4CCS(=O)(=O)CC4)c(=O)n(c3n1)CCCCC/C=C\CC(C)(O)C(F)(F)c1cccc(c1)[C@@H](C)N2 (stereo partly drawn) [Compound 101, (3R,Z)-1^6-(1,1-dioxidotetrahydro-2H-thiopyran-4-yl)-5,5-difluoro-6-hydroxy-1^2,3,6-trimethyl-1^7,1^8-dihydro-2-aza-1(4,8)-pyrido[2,3-d]pyrimidina-4(1,3)-benzenacyclotetradecaphan-8-en-1^7-one] | – | – | < 1000 nM | < 500 nM | < 1000 nM | < 100 nM | < 50 nM |
| C[C@H]1Nc2ncnc3c2cc(C2(C#N)CC2)c(=O)n3CCCCC/C=C\CN2CCC(CC2)C(F)(F)c2cccc1c2 [Compound 120, 1-((4R,Z)-2,2-difluoro-4-methyl-6^7-oxo-6^7,6^8-dihydro-5-aza-6(4,8)-pyrido[2,3-d]pyrimidina-1(4,1)-piperidina-3(1,3)-benzenacyclotetradecaphan-12-en-6^6-yl)cyclopropane-1-carbonitrile] | – | – | < 1000 nM | < 500 nM | < 1000 nM | < 100 nM | < 50 nM |
| Cc1nc2c3cc(C4(C#N)CC4)c(=O)n(c3n1)CCCCCCCN1CCC(CC1)C(F)(F)c1cccc(c1F)[C@@H](C)N2 [Compound 167, 1-((4R)-3^2,2,2-trifluoro-6^2,4-dimethyl-6^7-oxo-6^7,6^8-dihydro-5-aza-6(4,8)-pyrido[2,3-d]pyrimidina-1(4,1)-piperidina-3(1,3)-benzenacyclotridecaphane-6^6-yl)cyclopropane-1-carbonitrile] | – | – | < 1000 nM | < 500 nM | < 1000 nM | < 100 nM | < 50 nM |
| Cc1nc2c3cc(C4(C#N)CC4)c(=O)n(c3n1)CCC/C=C\CN1CCC(CC1)C(F)(F)c1cccc(c1F)[C@@H](C)N2 [Compound 170, 1-((4R,Z)-3^2,2,2-trifluoro-6^2,4-dimethyl-6^7-oxo-6^7,6^8-dihydro-5-aza-6(4,8)-pyrido[2,3-d]pyrimidina-1(4,1)-piperidina-3(1,3)-benzenacyclododecaphan-10-en-6^6-yl)cyclopropane-1-carbonitrile] | – | – | < 1000 nM | < 500 nM | < 1000 nM | < 100 nM | < 50 nM |
| Cc1nc2c3cc(C4(C#N)CC4)c(=O)n(c3n1)CCCCC/C=C\CN1CCC(CC1)C(F)(F)c1cccc(c1)[C@@H](C)N2 [Compound 171, 1-((4R,Z)-2,2-difluoro-6^2,4-dimethyl-6^7-oxo-6^7,6^8-dihydro-5-aza-6(4,8)-pyrido[2,3-d]pyrimidina-1(4,1)-piperidina-3(1,3)-benzenacyclotetradecaphan-12-en-6^6-yl)cyclopropane-1-carbonitrile] | – | – | < 1000 nM | < 500 nM | < 1000 nM | < 100 nM | < 50 nM |
| Cc1nc2c3cc(C4CCS(=O)(=O)CC4)c(=O)n(c3n1)CCCCCCCN1CCC(CC1)C(F)(F)c1cccc(c1)[C@@H](C)N2 [Compound 173, (4R)-6^6-(1,1-dioxidotetrahydro-2H-thiopyran-4-yl)-2,2-difluoro-6^2,4-dimethyl-6^7,6^8-dihydro-5-aza-6(4,8)-pyrido[2,3-d]pyrimidina-1(4,1)-piperidina-3(1,3)-benzenacyclotridecaphan-6^7-one] | – | – | < 1000 nM | < 500 nM | < 1000 nM | < 100 nM | < 50 nM |
| Cc1nc2c3cc(C4CCS(=O)(=O)CC4)c(=O)n(c3n1)CCCC/C=C\CN1CCC(CC1)C(F)(F)c1cccc(c1)[C@@H](C)N2 [Compound 174, (4R,Z)-6^6-(1,1-dioxidotetrahydro-2H-thiopyran-4-yl)-2,2-difluoro-6^2,4-dimethyl-6^7,6^8-dihydro-5-aza-6 (4,8)-pyrido[2,3-d]pyrimidina-1(4,1)-piperidina-3(1,3)-benzenacyclotridecaphan-11-en-6^7-one] | – | – | < 1000 nM | < 500 nM | < 1000 nM | < 100 nM | < 50 nM |
| C[C@H]1Nc2ncnc3c2cc(N2CCS(=O)(=O)CC2)c(=O)n3CCCOCCCCN2CC(C2)CC(F)(F)c2cccc1c2 [Compound 209, (3R)-1^6-(1,1-dioxidothiomorpholino)-5,5-difluoro-3-methyl-1^7,1^8-dihydro-12-oxa-2-aza-1(4,8)-pyrido[2,3-d]pyrimidina-7(3,1)-azetidina-4(1,3)-benzenacyclopentade-caphan-1^7-one] | – | – | < 1000 nM | < 500 nM | – | < 100 nM | < 50 nM |
| C[C@H]1Nc2ncnc3c2cc(C2(C#N)CCS(=O)(=O)CC2)c(=O)n3CCCCCCCN2CC(C2)CC(F)(F)c2cccc1c2 [Compound 210, 4-((3R)-5,5-difluoro-3-methyl-1^7-oxo-1^7,1^8-dihydro-2-aza-1(4,8)-pyrido[2,3-d]pyrimidina-7(3,1)-azetidina-4(1,3)-benzenacyclotetradecaphane-1^6-yl)tetrahydro-2H-thiopyran-4-carbonitrile 1,1-dioxide] | – | – | < 1000 nM | < 500 nM | – | < 100 nM | < 50 nM |
| C[C@H]1Nc2ncnc3c2cc(N2CCS(=O)(=O)CC2)c(=O)n3CCCCCCCN2CC(C2)CC(F)(F)c2cccc1c2 [Compound 211, (3R)-1^6-(1,1-dioxidothiomorpholino)-5,5-difluoro-3-methyl-1^7,1^8-dihydro-2-aza-1(4,8)-pyrido[2,3-d]pyrimidina-7(3,1)-azetidina-4(1,3)-benzenacyclotetradecaphan-1^7-one] | – | – | < 1000 nM | < 500 nM | – | < 100 nM | < 50 nM |
| C[C@H]1Nc2ncnc3c2cc(C2CCS(=O)(=O)CC2)c(=O)n3CCCCCCCN2CC(C2)CC(F)(F)c2cccc1c2F [Compound 212, (3R)-1^6-(1,1-dioxidotetrahydro-2H-thiopyran-4-yl)-4^2,5,5-trifluoro-3-methyl-1^7,1^8-dihydro-2-aza-1(4,8)-pyrido[2,3-d]pyrimidina-7(3,1)-azetidina-4(1,3)-benzenacyclotetradecaphan-1^7-one] | – | – | < 1000 nM | < 500 nM | – | < 100 nM | < 50 nM |
| C[C@H]1Nc2ncnc3c2cc(C2(C#N)CCS(=O)(=O)CC2)c(=O)n3CCCCCCN2CC(CCC(F)(F)c3cccc1c3)C2 [Compound 213, 4-((3R)-5,5-difluoro-3-methyl-1^7-oxo-1^7,1^8-dihydro-2-aza-1(4,8)-pyrido[2,3-d]pyrimidina-8(3,1)-azetidina-4(1,3)-benzenacyclotetradecaphane-1^6-yl)tetrahydro-2H-thiopyran-4-carbonitrile 1,1-dioxide] | – | – | < 1000 nM | < 500 nM | – | < 100 nM | < 50 nM |
